One data set deals with M. cheelonae BZ-4. Description: MIC on closely related bacteria: M. cheelonae. The format is cell-based.
A further data set in a line: in vitro. The conditions noted are these: human.
Data set [1] concerns Bacillus Calmette-Guérin (BCG). As to the kind of experiment: organism not typed. In kind it is cell-based, Mycobacterium bovis.
Data set [2] has as its system intracellular BCG within macrophages. In kind it is cell-based, Mycobacterium bovis.
A further data set relates to M. avium A209. As to the kind of experiment: MIC on closely related bacteria: M. avium. The format is cell-based. Conditions: Mycobacterium avium.
Data set [3] has as its system GFP-expressing BCG in infected THP-1 cells. Description: microbe, parasite or virus in culture. In kind it is cell-based. The conditions noted are these: Mycobacterium tuberculosis variant bovis BCG, THP-1, read-out: IC50, growth of GFP-expressing BCG in infected THP-1 cells.
In the next data set the test system is M. scrofulaceum BZ-20. As to the kind of experiment: MIC on closely related bacteria: M. scrofulaceum. In kind it is cell-based. The conditions noted are these: Mycobacterium scrofulaceum, BZ20.
The next data set has as its system M. xenopi BZ-23. Description: MIC on closely related bacteria: M. xenopi. In kind it is cell-based. The conditions noted are these: Mycobacterium xenopi, BZ23.
The next data set relates to MTB H37Rv. Description: microbe, parasite or virus in culture. The conditions noted are these: susceptible H37Rv. In kind it is cell-based, Mycobacterium tuberculosis.
Another data set relates to M. terrae BZ-15. Description: MIC on closely related bacteria: M. terrae. The format is cell-based. Conditions: Mycolicibacter terrae, BZ15.
Another data set deals with M. abscessus BZ-24. Description: MIC on closely related bacteria: M. abscessus. The format is cell-based. Conditions: Mycobacteroides abscessus, BZ24.
The test system of data set [4] is clinical Mycobacterium tuberculosis strains (HsRs: 90#, 140#, 74#). As to the kind of experiment: microbe, parasite or virus in culture. The format is cell-based.
A further data set is described as follows: MTT cytotoxicity assay. Conditions: human. On the technique in general: Tetrazolium dyes change colour on reduction, which living cells bring about.
Setting [5] is: read-out: MIC from in vitro validation on BCG.
Setting [6] is: read-out: MIC from in vitro validation.

≈ marks a conversion by molar mass, not a printed value. Where two headings read alike, the source gives them in different places.

As usually defined, the IC50 is the concentration that inhibits the measured activity by half. On to `Cn1ccc(=Nc2ccc(NC(=O)c3ccc(N=c4ccn(C)c5ccc([N+](=O)[O-])cc45)cc3)cc2)cc1` [NSC 260594, 4-[(1-methyl-6-nitroquinolin-4-ylidene)amino]-N-[4-[(1-methylpyridin-4-ylidene)amino]phenyl]benzamide], for which the MIC was more than 80 mg/L in the data set on M. cheelonae BZ-4; 0.078 mg/L (≈ 0.155 µM) in [1] (setting [5]); 1.25 mg/L (≈ 2.48 µM) in the data set with M. avium A209; more than 80 mg/L against M. scrofulaceum BZ-20; more than 80 mg/L with M. xenopi BZ-23; less than 0.625 mg/L with MTB H37Rv (Mycobacterium tuberculosis, Table 7 and text, read-out: MIC). For the same compound, the MIC was less than 0.625 mg/L in the data set on MTB H37Rv (Table 4); less than 0.625 mg/L with MTB H37Rv (Table 7 and text); 2.5 mg/L (≈ 4.95 µM) with M. terrae BZ-15; more than 80 mg/L against M. abscessus BZ-24. The IC50 in the data set “in vitro” is 7.5 mg/L (≈ 14.9 µM); in data set [3], 7.8 mg/L (≈ 15.5 µM). Also, the “performance on BCG compared with isoniazid and rifampicin” value in data set [1] is “performed at levels comparable of isoniazid and rifampicin”. Further, the “intracellular anti-TB activity against BCG” value in [2] is “time- and concentration-dependent anti-TB activity”.
Turning to `O=c1/c(=C/c2cc(Br)ccc2F)sc2nc3ccccc3n12` [CAS 292169-72-3, (Z)-2-(5-Bromo-2-fluorobenzylidene)benzo[4,5]imidazo[2,1-b]thiazol-3(2H)-one], the MIC in data set [1] (setting [6]) is more than 128 mg/L.
Consider `O=C(Nc1cccc(-c2nc3ccccc3[nH]2)c1)c1ccc(C(=O)Nc2cccc(-c3nc4ccccc4[nH]3)c2)cc1` [NSC 61610, 1-N,4-N-bis[3-(1H-benzimidazol-2-yl)phenyl]benzene-1,4-dicarboxamide], for which the MIC in data set [1] (setting [5]) came out at 40 mg/L (≈ 72.9 µM).
For `O=C(O)C1C2C(=O)N(Cc3ccccn3)C[C@]23C=C[C@H]1O3` (stereo partly drawn) [CAS 1164528-69-1, (3aS,6R)-1-oxo-2-(pyridin-2-ylmethyl)-1,2,3,6,7,7a-hexahydro-3a,6-epoxyisoindole-7-carboxylic acid], the MIC in data set [1] (setting [6]) was more than 128 mg/L.
In the case of `O=C(Nc1ccc(Oc2ccc(NC(=O)Nc3ccccc3Cl)cc2)cc1)Nc1ccccc1Cl` [NSC 80731, 1-(2-chlorophenyl)-3-[4-[4-[(2-chlorophenyl)carbamoylamino]phenoxy]phenyl]urea], in data set [1] (setting [5]), the MIC was 80 mg/L (≈ 158 µM).
With `O=C1CC(c2cccc(O)c2)Nc2ccc3ccccc3c21` (centres unmarked) [CAS 333759-52-7, 3-(3-hydroxyphenyl)-3,4-dihydrobenzo[f]quinolin-1(2H)-one], the MIC in data set [1] (setting [6]) is more than 128 mg/L.
Still for that read-out and setting: with `O=[N+]([O-])c1cccc(CNC2CCCc3ccccc32)c1` (centres unmarked) [CAS 353779-33-6, N-(3-nitrobenzyl)-1,2,3,4-tetrahydronaphthalen-1-amine] the figure was 128 mg/L (≈ 453 µM).
For the compound `Cc1ccc2[nH]c3c(c2c1)CCCC3NCc1ccccc1` (centres unmarked) [CAS 118498-98-9, N-benzyl-6-methyl-2,3,4,9-tetrahydro-1H-carbazol-1-amine], the MIC in data set [1] (setting [6]) came to 32 mg/L (≈ 110 µM); in [4] it was 6.4 mg/L (≈ 22 µM); in data set [4] (strain 74#, HsRs, read-out: MIC), 6.4 mg/L (≈ 22 µM); in data set [4] (strain 140#, HsRs, read-out: MIC), 3.2 mg/L (≈ 11 µM).
Regarding `O=[N+]([O-])c1ccc(C2CC(c3ccccc3)=Nc3ccccc3S2)cc1` (centres unmarked) [NSC 270738, 2-(4-nitrophenyl)-4-phenyl-2,3-dihydro-1,5-benzothiazepine], the MIC in [1] (setting [5]) came to 5 mg/L (≈ 13.9 µM).
Turning to `O=[N+]([O-])c1ccccc1CNCCc1c[nH]c2ccccc12` [CAS 355816-45-4, 2-(1H-indol-3-yl)-N-(2-nitrobenzyl)ethanamine], the MIC in [1] (setting [6]) amounted to 128 mg/L (≈ 433 µM).
In the case of `c1ccc2cc(OCCOCCOc3ccc4ccccc4c3)ccc2c1` [NSC 37219, 2-[2-(2-naphthalen-2-yloxyethoxy)ethoxy]naphthalene], the MIC in [1] (setting [5]) was 80 mg/L (≈ 223 µM).
Consider `CO[C@@H]1[C@@H](OC(=O)c2ccc(C)[nH]2)[C@@H](O)[C@H](Oc2ccc3c(O)c(NC(=O)c4ccc(O)c(CC=C(C)C)c4)c(=O)oc3c2Cl)OC1(C)C` [NSC 227186, [(3R,4S,5R,6S)-6-[8-chloro-4-hydroxy-3-[[4-hydroxy-3-(3-methylbut-2-enyl)benzoyl]amino]-2-oxochromen-7-yl]oxy-5-hydroxy-3-methoxy-2,2-dimethyloxan-4-yl]5-methyl-1H-pyrrole-2-carboxylate], for which the MIC is 40 mg/L (≈ 57.4 µM) against M. cheelonae BZ-4; 0.625 mg/L (≈ 0.897 µM) in [1] (setting [5]); 80 mg/L (≈ 115 µM) against M. avium A209; 80 mg/L (≈ 115 µM) in the data set on M. scrofulaceum BZ-20; 80 mg/L (≈ 115 µM) against M. xenopi BZ-23; less than 0.625 mg/L with MTB H37Rv (Mycobacterium tuberculosis, Table 4, read-out: MIC). Further, the MIC in the data set on M. terrae BZ-15 was more than 80 mg/L; against M. abscessus BZ-24, 40 mg/L (≈ 57.4 µM). Also, the “performance on BCG compared with isoniazid and rifampicin” value in data set [1] is “performed at levels comparable of isoniazid and rifampicin”.
Regarding `COc1ccc(N2COc3ccc4cc(Br)ccc4c3C2)cc1` [CAS 376374-34-4, 8-bromo-2-(4-methoxyphenyl)-2,3-dihydro-1H-naphtho[1,2-e][1,3]oxazine], the MIC in data set [1] (setting [6]) is 128 mg/L (≈ 346 µM).
In “MTT cytotoxicity assay”, `CO[C@H]1/C=C/O[C@@]2(C)Oc3c(C)c(O)c4c(O)c(c(/C=N/N5CCN(C)CC5)c(O)c4c3C2=O)NC(=O)/C(C)=C\C=C\[C@H](C)[C@H](O)[C@@H](C)[C@@H](O)[C@@H](C)[C@H](OC(C)=O)[C@@H]1C` [Rifampicin, reference compound] yielded a concentration for half-maximal inhibition (IC50) of 1 mg/L (≈ 1.22 µM).
